# Measurements reported in patent US11478466B2, “Small molecule promoting osteoblast differentiation” (Cornell University, priority 2019, dated 2022).
# Test system: alkaline phosphatase (ALP)
# Conditions: for RFU Score Threshold ≥ 800 / Fluorescence Z Score Threshold ≥ 10 / NPA Score Threshold ≥ 5.0 (normalized percent activation): primary screen, 10 μM, C2C12, 4 days; for RFU Score Threshold ≥ 800: Ex 450/Em 580 nm, rank in brackets not taken; for Fluorescence Z Score Threshold ≥ 10: Z score on DMSO control wells; for NPA Score Threshold ≥ 5.0 (normalized percent activation): normalized against rhBMP4 positive and DMSO negative controls
# Description: To identify small-molecule activators of osteoblast differentiation, we measured ALP activity using a fluorescent emission assay as a reporter for enzymatic digestion of ALP substrate in lysates derived from C2C12 myoblasts. […] Therefore, before screening, the assay was calibrated using recombinant human BMP4 protein as a positive control. Compounds were robotically deposited onto 384-well plates and then overlaid by C2C12 cells for a 4-day culture period, followed by lysis and fluorescent substrate assays (FIG. 1A; Table 1). To ensure uniformity, C2C12 cells were maintained in normal culture medium containing 10% fetal bovine serum, and lysis and substrate addition achieved using a microplate multidrop device. The primary screen (Table 2) encompassed greater than 47,000 small molecules tested at a final concentration of 10 μM.
# For the primary screen, library compounds were distributed onto 384-well microplates (Greiner Bio-One 781091) at a final concentration of 10 μM in culture medium using a Perkin Elmer Janus automated workstation and WinPrep Version 4.8.3.315. Positive (rhBMP4, 1 ng/ml, R&D Systems) and negative controls (DMSO, 0.2%) were manually added to each plate by multichannel pipet. C2C12 cells were seeded onto compounds and controls at a density of 2000/well using a Thermo Multidrop Combi reagent dispenser and cultured for 4 days at 37° C., 5% CO2. Culture medium was aspirated using a BioTek EL406 plate washer and cells were lysed in RIPA buffer (Millipore 20-188) at ambient temperature for 10 minutes. 10 μl fluorescent alkaline phosphatase substrate (AttoPhos, Promega S1000) was added to lysates and incubated an additional 10 minutes before measuring the fluorescence (Excitation 450 nm/Emission 580 nm) on a BioTek Synergy Neo2 stacking microplate reader. Plates were processed and relative fluorescence raw values measured in stacks of 10-20. The data were processed using Collaborative Drug Discovery web-based software (CDD Vault) to determine Z score calculated on DMSO control wells and percent activation normalized against positive and negative controls (NPA). Cherry-picked hit candidates were re-tested in concentration response experiments, from which 4 candidates were chosen and purchased for further testing from either ChemBridge or Enamine, based on availability.
# We also purchased a library of 154 structural chemical analogs assembled by ChemBridge Corp. from available screening library compounds.
Molecule,RFU Score Threshold ≥ 800,Fluorescence Z Score Threshold ≥ 10,NPA Score Threshold ≥ 5.0 (normalized percent activation),"EC50 (read-out: Measured EC50, compounds validated in secondary screen, C2C12) [µM]"
N-(3-isoquinolin-5-ylbenzyl)propanamide [RU-0248250],1000 (11),24.29 (5),Below Threshold,> 40
COC(=O)c1ccc(NC(=O)c2c3c(nn2C2CCS(=O)(=O)C2)CCC3)cc1 (stereo not shown) [RU-0159762],855 (22),21.33 (6),Below Threshold,–
CC1(C)C(=O)NCCN1C(=O)/C=C(/c1ccc(Cl)cc1)C(F)(F)F [RU-0213635],1170 (5),15.00 (14),Below Threshold,–
CN(Cc1cccc2ncccc12)CC1CCOC1 (stereo not shown) [RU-0252111],1010 (10),16.48 (12),Below Threshold,–
CCC(C)(C)C(=O)N1CCC(CO)(CCOc2ccccc2)CC1 [RU-0220454],811 (31),Below Threshold,Below Threshold,–
O=C(N[C@H]1CN[C@H](C(=O)NCCCn2ccnc2)C1)c1cccc(Cl)c1 [RU-0245007],993 (12),14.31 (17),Below Threshold,–
Cc1cc(C(=O)NC2(C#N)CC2)ccc1NC(=O)CC(C)C [RU-0213672],1040 (9),12.15 (20),Below Threshold,–
COc1cccc(C2CCN(c3ncnc4c3CCNC4)C2)c1OC (stereo not shown) [RU-0227959],815 (30),Below Threshold,Below Threshold,–
Cc1ccc(CN2CCN(Cc3ccccc3CO)CC2)n1-c1cccnc1 [RU-0221380],922 (13),16.89 (11),Below Threshold,–
OCc1ccccc1-c1ccc(NC2CCCC2)nn1 [RU-0227303],Below Threshold,13.68 (18),Below Threshold,–
c1ccc(CC2CCN(Cc3cc4n(n3)CCCNC4)C2)cc1 (stereo not shown) [RU-0246723],873 (20),10.91 (23),Below Threshold,–
CCOC(=O)c1n[nH]cc1[C@@H]1C[C@H](NC(C)=O)C[C@H](CC(C)C)O1 [RU-0257787],Below Threshold,12.09 (21),Below Threshold,–
O=C(c1ccc2c(c1)OCO2)C1CCCN(C(=O)c2cnn(Cc3ccccc3)c2)C1 (stereo not shown) [RU-0227215],1310 (4),27.39 (4),Below Threshold,–
Cc1nc(CCN)cc(N2CCCC2c2nonc2C)n1 (stereo not shown) [RU-0250475],879 (19),Below Threshold,Below Threshold,–
CCCc1nc(C)c(CNC(=O)C2CCOC2)s1 (stereo not shown) [RU-0254439],Below Threshold,14.37 (16),Below Threshold,–
CCCc1ccc(-c2ccc(C(=O)N3C[C@@H](N)C[C@H]3C(=O)NC)cc2)cc1 [RU-0232318],804 (35),Below Threshold,Below Threshold,–
CN1CCC2(CC1)CN(C(=O)COCC1CCCO1)CCCN2C (stereo not shown) [RU-0224115],900 (17),Below Threshold,Below Threshold,–
CCC(OC)C(=O)NCc1ccc2[nH]c(-c3ccccc3F)c(C)c2c1 (stereo not shown) [RU-0244068],836 (26),Below Threshold,Below Threshold,–
O[C@@H]1CNCC[C@H]1CNCc1ccccc1-c1ccccc1 [RU-0236855],810 (32),Below Threshold,Below Threshold,–
c1ccc2c(c1)nc(NC1CCCC1)c1nncn12 [RU-0007138],Below Threshold,17.92 (10),Below Threshold,–
Cc1cccc(-c2ncc(CN3CCCC(Cn4ccnc4C)C3)cn2)c1 (stereo not shown) [RU-0261573],857 (21),10.31 (24),Below Threshold,–
Cc1ccccc1N1CCN(C(=O)c2ccc(C#CC(C)(C)O)o2)C(C)C1 (stereo not shown) [RU-0228950],921 (14),15.58 (13),Below Threshold,–
Cc1nc[nH]c1CN1CCOc2c(O)cc(-c3cccc(Cl)c3)cc2C1 [RU-0236543],821 (27),Below Threshold,Below Threshold,–
CCNC(=O)N1CCc2c(cnc(C)c2-c2noc(-c3ccc(C)cc3)n2)C1 [RU-0265172],840 (25),18.70 (9),Below Threshold,–
Cc1ccc(OCCN(C)Cc2ccncc2)c(C)c1 [RU-0244443],818 (29),Below Threshold,Below Threshold,–
